The source of these data is ChEMBL document CHEMBL5584269 (Bioorg Med Chem Lett, 2024).

The source made the active and inactive calls. The calls are words filed in the database; no cut-off is given here.

The subject of assay [1] is Trypanosoma cruzi. Description: Antitrypanosomal activity against epimastigote form of Trypanosoma cruzi CL Brener assessed as fold change in reduction of parasite growth incubated for 72 hrs by alamar blue dye based fluorescence analysis relative to miltefosine. The class given is functional.
Assay [2] relates to Leishmania donovani. Briefly: Antileishmanial activity against Leishmania donovani axenic amastigotes assessed as reduction in parasite growth incubated for 72 hrs by alamar blue dye based fluorescence analysis. The class given is functional, organism-based. (Alamar Blue is a resazurin reagent that responds to reducing activity.)
Assay [3] has as its system Trypanosoma brucei. Briefly: Induction of morphological change in bloodstream trypomastigote form of Trypanosoma brucei Lister 427 assessed as reduction in cytokinesis at EC10 incubated for 48 hrs by DAPI staining based immunofluorescence analysis. The class given is functional, organism-based.
Assay [4] deals with Leishmania donovani. Briefly: Antileishmanial activity against promastigote form of Leishmania donovani assessed as reduction in parasite growth incubated for 72 hrs by alamar blue dye based fluorescence analysis. The class given is functional, organism-based.
The subject of assay [5] is Leishmania major. Briefly: Antileishmanial activity against promastigote form of Leishmania major Freidlin assessed as reduction in parasite growth incubated for 72 hrs by alamar blue dye based fluorescence analysis. The class given is functional, organism-based.
Assay [6] relates to Trypanosoma brucei. Description: Antitrypanosomal activity against bloodstream trypomastigote form of Trypanosoma brucei Lister 427 assessed as reduction in parasite growth incubated for 72 hrs by alamar blue dye based fluorescence analysis. It is filed as functional, organism-based. Conditions: Lister 427, 72 h.
A short description of assay [7]: Selectivity ratio of EC50 for antileishmanial activity against Leishmania donovani amastigotes infected in human THP-1 cells to EC50 for cytotoxicity against human THP-1 cells. The class given is functional.
Another assay deals with THP-1. Description: Cytotoxicity against human THP-1 cells incubated for 72 hrs by alamar blue cell viability assay. It is filed as functional, cell-based. To be noted: THP-1, 72 h.
Assay [8] has as its system Trypanosoma cruzi. Description: Antitrypanosomal activity against epimastigote form of Trypanosoma cruzi CL Brener assessed as reduction in parasite growth incubated for 72 hrs by alamar blue dye based fluorescence analysis. It is filed as functional, organism-based.
In the next assay the test system is HeLa. Briefly: Cytotoxicity against human HeLa cells incubated for 72 hrs by alamar blue cell viability assay. It is filed as functional, cell-based.
The test system of assay [9] is Trypanosoma brucei. Description: Induction of morphological change in bloodstream trypomastigote form of Trypanosoma brucei Lister 427 assessed as appearance of swollen cells at EC10 incubated for 48 hrs by DAPI staining based immunofluorescence analysis. The class given is functional, organism-based.
Assay [10] deals with Leishmania major. Description: Antileishmanial activity against promastigote form of Leishmania major Freidlin assessed as morphological change at EC10 incubated for 48 hrs by DAPI staining based immunofluorescence analysis. It is filed as functional, organism-based.
The subject of assay [11] is Leishmania donovani. Briefly: Antileishmanial activity against Leishmania donovani amastigotes infected in human THP-1 cells assessed as reduction in parasite growth incubated for 72 hrs by alamar blue dye based fluorescence analysis. It is filed as functional, organism-based. Conditions: THP-1, 72 h.

Regarding `COC(=O)[C@@H]1CCCN1C(=O)CCSCc1ccccc1`, the “fold change (FC)” value with Trypanosoma cruzi [1] amounted to 3. Further, the EC50 is 0.91 µM in the assay on Leishmania donovani [2]; 1.18 µM in the assay on Leishmania donovani [4]; 1.24 µM with Leishmania major [5]; 6.9 µM with Trypanosoma brucei [6]; over 250 µM in the assay on THP-1; 5.1 µM with Trypanosoma cruzi [8]. Also, the EC50 with HeLa was over 250 µM; in the assay with Leishmania donovani [11], 4.98 µM. Also, the result with Trypanosoma brucei [3] and with Trypanosoma brucei [9] was Active. Also, in [7], the “Ratio EC50” value is given as 50. Moreover, in the assay on Leishmania major [10], the result was inactive.

By EC50 is commonly meant the midpoint of the concentration-response curve.
